Source: patent US20070099962A1, “5,6-Dihydropyrin-2-one compounds useful as inhibitors of thrombin” (priority 2003, published 2007)

Target: T1, Human α-thrombin (Homo sapiens, UniProt P00734)
T1 construct: Human α-thrombin, Sigma Chemical Co. or Hematologic Technologies; purchased Sigma Chemical Co. or Hematologic Technologies
Assay: Test B: Determination of Thrombin Inhibition with a Chromogenic, Robotic Assay
Assay type: biochemical
Conditions: chromogenic substrate S-2366, 40 minutes incubation at 37° C.
Text: The thrombin clotting time (TT) is expressed as absolute values (seconds) as well as the ratio of TT without inhibitor (TT0) to TT with inhibitor (TTi). The latter ratios (range 1-0) are plotted against the concentration of inhibitor (log transformed) and fitted to sigmoidal dose-response curves according to the equation y=a/[1+(x/IC50)^s] where: a=maximum range, i.e. 1; s=slope of the dose-response curve; and IC50=the concentration of inhibitor that doubles the clotting time. The calculations are processed on a PC using the software program GraFit Version 3, setting equation equal to: Start at 0, define end=1 (Erithacus Software, Robin Leatherbarrow, Imperial College of Science, London, UK). […]
The thrombin inhibitor potency is measured with a chromogenic substrate method, in a Plato 3300 robotic microplate processor (Rosys AG, CH-8634 Hombrechtikon, Switzerland), using 96-well, half volume microtitre plates (Costar, Cambridge, Mass., USA; Cat No 3690). Stock solutions of test substance in DMSO (72 μL), 0.1-1 mmol/L, are diluted serially 1:3 (24+48 μL) with DMSO to obtain ten different concentrations, which are analysed as samples in the assay. […] The linear absorbance increment during 40 minutes incubation at 37° C. is used for calculation of percentage inhibition for the test samples, as compared to blanks without inhibitor. […]

Structure (SMILES)	IC50 [nM]
CC1=C(CC(=O)NCc2ccc(C(=N)N)cc2)C(=O)N(NS(=O)(=O)Cc2ccccc2)CC1 [2(i), N-(4-Carbamimidoylbenzyl)-2-(4-methyl-2-oxo-1-phenylmethanesulfonylamino-1,2,5,6-tetrahydropyridin-3-yl)acetamide]	240
CC1=C(CC(=O)NCc2ccc(C(=N)N)cc2)C(=O)N(NS(=O)(=O)c2cccc3ccccc23)CC1 [2(iii), N-(4-Carbamimidoylbenzyl)-2-[4-methyl-1-(naphthalene-1-sulfonylamino)-2-oxo-1,2,5,6-tetrahydropyridin-3-yl]acetamide]	25.6
